Measurements taken from patent US8367668B2, “Pyridazinone derivatives” (Merck Patent Gesellschaft mit Beschränkter Haftung, priority 2007, dated 2013).

biological target: T1, Met kinase (Homo sapiens, UniProt P08581); experiment: Met kinase inhibition (enzyme assay), flashplate method; assay type: biochemical
T1 construct: 6His (N); purchased Upstate 14-526; host or cells: Sf21 insect cells (S. frugiperda), baculovirus
From the text: Measurement of Met Kinase Activity
According to the manufacturer's data (Met, active, upstate, catalogue No. 14-526), Met kinase is expressed for the purposes of protein production in insect cells (Sf21; S. frugiperda) and subsequent affinity-chromatographic purification as “N-terminal 6His-tagged” recombinant human protein in a baculovirus expression vector.
The kinase activity can be measured using various available measurement systems. In the scintillation proximity method (Sorg et al., J. of Biomolecular Screening, 2002, 7, 11-19), the flashplate method or the filter binding test, the radioactive phosphorylation of a protein or peptide as substrate is measured using radioactively labelled ATP (^32P-ATP, ^33P-ATP). In the case of the presence of an inhibitory compound, a reduced radioactive signal, or none at all, can be detected. Furthermore, homogeneous time-resolved fluorescence resonance energy transfer (HTR-FRET) and fluoroescence polarisation (FP) technologies can be used as assay methods (Sills et al., J. of Biomolecular Screening, 2002, 191-214).
Flashplate Method (Met Kinase)
The test plates used are 96-well Flashplate® microtitre plates from Perkin Elmer (Cat. No. SMP200). The components of the kinase reaction described below are pipetted into the assay plate. The Met kinase and the substrate poly Ala-Glu-Lys-Tyr, (pAGLT, 6:2:5:1), are incubated for 3 hrs at room temperature with radioactively labelled ^33P-ATP in the presence and absence of test substances in a total volume of 100 μl. The reaction is terminated using 150 μl of a 60 mM EDTA solution. After incubation for a further 30 min at room temperature, the supernatants are filtered off with suction, and the wells are washed three times with 200 μl of 0.9% NaCl solution each time. The measurement of the bound radioactivity is carried out by means of a scintillation measuring instrument (Topcount NXT, Perkin-Elmer).
The full value used is the inhibitor-free kinase reaction. This should be approximately in the range 6000-9000 cpm. The pharmacological zero value used is staurosporin in a final concentration of 0.1 mM. The inhibitory values (IC50) are determined using the RS1_MTS program.
Kinase reaction conditions per well: • 30 μl of assay buffer • 10 μl of substance to be tested in assay buffer with 10% of DMSO • 10 μl of ATP (final concentration 1 μM cold, 0.35 μCi of ^33P-ATP) • 50 μl of Met kinase/substrate mixture in assay buffer; • (10 ng of enzyme/well, 50 ng of pAGLT/well)
50 mM HEPES • 3 mM magnesium chloride • 3 μM sodium orthovanadate • 3 mM manganese(II) chloride • 1 mM dithiothreitol (DTT)
pH=7.5 (to be set using sodium hydroxide)
60 mM Titriplex III (EDTA)
Met kinase: Upstate, Cat. No. 14-526, Stock 1 μg/10 μl; spec. activity 954 U/mg;
Poly-Ala-Glu-Lys-Tyr, 6:2:5:1: Sigma Cat. No. P1152
Pharmacological Data Met Kinase Inhibitions (Enzyme Assay)

T1 sequence (P08581 974-1390 limits assumed): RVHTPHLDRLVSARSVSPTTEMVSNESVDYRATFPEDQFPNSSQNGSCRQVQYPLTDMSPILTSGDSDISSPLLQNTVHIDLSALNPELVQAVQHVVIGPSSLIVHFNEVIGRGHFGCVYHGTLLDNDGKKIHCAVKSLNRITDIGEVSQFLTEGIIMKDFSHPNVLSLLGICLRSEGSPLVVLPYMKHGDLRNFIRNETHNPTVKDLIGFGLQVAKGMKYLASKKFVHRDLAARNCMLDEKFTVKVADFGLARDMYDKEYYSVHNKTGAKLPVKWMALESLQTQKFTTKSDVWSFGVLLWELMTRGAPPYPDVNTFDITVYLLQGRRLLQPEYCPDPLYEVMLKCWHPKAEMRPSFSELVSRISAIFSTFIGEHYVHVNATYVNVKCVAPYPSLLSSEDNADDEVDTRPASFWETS

IC50, 10 to 1000 nM:
CCOC(=O)Nc1cccc(Cn2nc(-c3cccc(CNC(=O)CCN)c3)ccc2=O)c1 [A135]
CCOC(=O)Nc1cccc(Cn2nc(-c3cccc(C(=O)NCCCCN)c3)ccc2=O)c1 [A136]
CCOC(=O)Nc1cccc(Cn2nc(-c3cccc(C(=O)NCCCN)c3)ccc2=O)c1 [A137]
CCOC(=O)Nc1cccc(Cn2nc(-c3cccc(C(=O)NCCN)c3)ccc2=O)c1 [A138]
CCOC(=O)Nc1cccc(Cn2nc(-c3cccc(CC(=O)NCCCCN)c3)ccc2=O)c1 [A139]
CCOC(=O)Nc1cccc(Cn2nc(-c3cccc(CC(=O)NCCCN)c3)ccc2=O)c1 [A140]
CCOC(=O)Nc1cccc(Cn2nc(-c3cccc(CC(=O)NCCN)c3)ccc2=O)c1 [A141]
CCOC(=O)Nc1cccc(Cn2nc(-c3ccc(CNC(=O)CCN4CCNCC4)cc3)ccc2=O)c1 [A142]
CCOC(=O)Nc1cccc(Cn2nc(-c3ccc(CNC(=O)CN4CCNCC4)cc3)ccc2=O)c1 [A143]
CCOC(=O)Nc1cccc(Cn2nc(-c3cccc(CNC(=O)CN4CCNCC4)c3)ccc2=O)c1 [A144]
CCOC(=O)Nc1cccc(Cn2nc(-c3cccc(CNC(=O)CCN4CCNCC4)c3)ccc2=O)c1 [A145]
CCOC(=O)Nc1cccc(Cn2nc(-c3ccc(CC(=O)NCCCCN)cc3)ccc2=O)c1 [A146]
CCOC(=O)Nc1cccc(Cn2nc(-c3ccc(CC(=O)NCCN)cc3)ccc2=O)c1 [A147]
CCOC(=O)Nc1cccc(Cn2nc(-c3ccc(CC(=O)NCCCN)cc3)ccc2=O)c1 [A148]
CCOC(=O)Nc1cccc(Cn2nc(-c3ccc(-c4noc(C)n4)cc3)ccc2=O)c1 [A163, ethyl(3-{3-[4-(5-methyl-1,2,4-oxadiazol-3-yl)phenyl]-6-oxo-6H-pyridazin-1-ylmethyl}phenyl)carbamate]
CCOC(=O)Nc1cccc(Cn2nc(-c3ccc(CN(Cc4ncc[nH]4)Cc4ncc[nH]4)cc3)ccc2=O)c1 [A171, ethyl{3-[3-(4-{[bis(1H-imidazol-2-ylmethyl)amino]methyl}-phenyl)-6-oxo-6H-pyridazin-1-ylmethyl]phenyl}carbamate]
CCOC(=O)Nc1cccc(Cn2nc(-c3ccc(-c4nnn[nH]4)cc3)ccc2=O)c1 [A172, ethyl(3-{6-oxo-3-[4-(1H-tetrazol-5-yl)phenyl]-6H-pyridazin-1-ylmethyl}phenyl)carbamate]
